Usually Ki stands for the equilibrium dissociation constant of an inhibitor or competing ligand from its target.

SMILES strings stand for the structures.

In assay [1] the target is soluble human BACE1 catalytic domain (Homo sapiens (Human), UniProt P56817). Nature of the assay: BACE1 HTRF FRET Assay. Type of assay: biochemical. Particulars: Ki calculated from IC50 using the Cheng-Prusoff equation; QSY7-APPswe-Eu substrate, pH 5.0; read-out: BACE-1 Ki. The source says: • Reagents: Na^+-Acetate pH 5.0; 1% Brij-35; Glycerol; Dimethyl Sulfoxide (DMSO); Recombinant human soluble BACE1 catalytic domain (>95% pure); APP Swedish mutant peptide substrate (QSY7-APP^swe-Eu): QSY7-EISEVNLDAEFC-Europium-amide.
A homogeneous time-resolved FRET assay can be used to determine IC50 values for inhibitors of the soluble human BACE1 catalytic domain. This assay monitors the increase of 620 nm fluorescence that resulted from BACE1 cleavage of an APPswedish APP^swe mutant peptide FRET substrate (QSY7-EISEVNLDAEFC-Europium-amide). This substrate contains an N-terminal QSY7 moiety that serves as a quencher of the C-terminal Europium fluorophore (620 nm Em). In the absence of enzyme activity, 620 nm fluorescence is low in the assay and increased linearly over 3 hours in the presence of uninhibited BACE1 enzyme. Inhibition of BACE1 cleavage of the QSY7-APP^swe-Eu substrate by inhibitors is manifested as a suppression of 620 nm fluorescence.
Varying concentrations of inhibitors at 3× the final desired concentration in a volume of 10 ul are preincubated with purified human BACE1 catalytic domain (3 nM in 10 μl) for 30 minutes at 30° C. in reaction buffer containing 20 mM Na-Acetate pH 5.0, 10% glycerol, 0.1% Brij-35 and 7.5% DSMO. Reactions are initiated by addition of 10 μl of 600 nM QSY7-APP^swe-Eu substrate (200 nM final) to give a final reaction volume of 30 μl in a 384 well Nunc HTRF plate. The reactions are incubated at 30° C. for 1.5 hours. The 620 nm fluorescence is then read on a Rubystar HTRF plate reader (BMG Labtechnologies) using a 50 millisecond delay followed by a 400 millisecond acquisition time window. Inhibitor IC50 values are derived from non-linear regression analysis of concentration response curves. Ki values are then calculated from IC50 values using the Cheng-Prusoff equation using a previously determined m value of […] for the QSY7-APP^swe-Eu substrate at BACE1.

Assay [2] addresses purified human autoBACE-2 (Homo sapiens (Human), UniProt Q9Y5Z0). Nature of the assay: BACE-2 Assay (BACE-HTRF assay). Type of assay: biochemical. Particulars: Ki calculated from IC50 using the Cheng-Prusoff equation; QSY7-EISEVNLDAEFC-Eu-amide substrate, pH 5.0. The procedure: Inhibitor IC50s at purified human autoBACE-2 are determined in a time-resolved endpoint proteolysis assay that measures hydrolysis of the QSY7-EISEVNLDAEFC-Eu-amide FRET peptide substrate (BACE-HTRF assay). BACE-mediated hydrolysis of this peptide results in an increase in relative fluorescence (RFU) at 620 nm after excitation with 320 nm light. Inhibitor compounds, prepared at 3× the desired final concentration in 1×BACE assay buffer (20 mM sodium acetate pH 5.0, 10% glycerol, 0.1% Brij-35) supplemented with 7.5% DMSO are preincubated with an equal volume of autoBACE-2 enzyme diluted in 1×BACE assay buffer (final enzyme concentration 1 nM) in black 384-well NUNC plates for 30 minutes at 30° C. […] DMSO is present at 5% final concentration in the assay. Following laser excitation of sample wells at 320 nm, the fluorescence signal at 620 nm is collected for 400 ms following a […] on a RUBYstar HTRF plate reader (BMG Labtechnologies). Raw RFU data is normalized to maximum (1.0 nM BACE/DMSO) and minimum (no enzyme/DMSO) RFU values. IC50s are determined by nonlinear regression analysis (sigmoidal dose response, variable slope) of percent inhibition data with minimum and maximum values set to 0 and 100 percent respectively. Similar IC50s are obtained when using raw RFU data. The Ki values are calculated from the IC50 using the Cheng-Prusoff equation.

Chain of purified human autoBACE-2 (Q9Y5Z0 63-473): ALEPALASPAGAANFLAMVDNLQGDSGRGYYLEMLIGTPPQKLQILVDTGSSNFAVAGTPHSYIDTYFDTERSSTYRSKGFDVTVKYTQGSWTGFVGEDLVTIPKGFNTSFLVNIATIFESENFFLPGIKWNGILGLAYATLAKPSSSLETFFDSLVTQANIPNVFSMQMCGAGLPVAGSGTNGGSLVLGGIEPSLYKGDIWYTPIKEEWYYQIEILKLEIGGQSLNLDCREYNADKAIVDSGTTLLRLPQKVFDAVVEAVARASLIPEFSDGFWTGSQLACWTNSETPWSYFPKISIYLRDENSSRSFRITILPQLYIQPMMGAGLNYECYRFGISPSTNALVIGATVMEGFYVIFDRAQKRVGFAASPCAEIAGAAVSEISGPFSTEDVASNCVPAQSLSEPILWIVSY
Chain of soluble human BACE1 catalytic domain (P56817 75-416): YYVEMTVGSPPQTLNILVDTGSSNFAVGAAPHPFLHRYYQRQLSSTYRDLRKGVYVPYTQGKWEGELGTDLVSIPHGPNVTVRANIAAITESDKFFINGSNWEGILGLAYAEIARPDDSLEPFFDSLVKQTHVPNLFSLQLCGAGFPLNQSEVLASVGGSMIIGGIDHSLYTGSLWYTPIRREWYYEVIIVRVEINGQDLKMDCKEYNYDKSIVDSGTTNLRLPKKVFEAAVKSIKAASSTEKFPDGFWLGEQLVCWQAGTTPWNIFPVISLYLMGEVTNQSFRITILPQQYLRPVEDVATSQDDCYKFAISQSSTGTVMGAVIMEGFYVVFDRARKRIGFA

In the case of `COC[C@H]1C[C@@H]2[C@](c3cc(Oc4cc(C#N)ccn4)ccc3F)(CO1)NC(=N)N(C)S2(=O)=O` [Example 10, 2-(4-fluoro-3-((4aS,7R,8aR)-3-imino-7-(methoxymethyl)-2-methyl-1,1-dioxidooctahydropyrano[3,4-e][1,2,4]thiadiazin-4a-yl)phenoxy)isonicotinonitrile], the Ki in assay [1] was 1.9 nM; in assay [2], 3.4 nM.
For `C[C@H]1C[C@@H]2[C@](c3cc(Oc4cc(F)cnc4F)ccc3F)(CO1)NC(=N)N(C)S2(=O)=O` [Example 6, (4aS,7S,8aR)-4a-(5-((2,5-difluoropyridin-3-yl)oxy)-2-fluorophenyl)-3-imino-2,7-dimethyloctahydropyrano[3,4-e][1,2,4]thiadiazine 1,1-dioxide] the same measures were 7.1 nM and 15 nM.
In the case of `C[C@H]1C[C@@H]2[C@](c3cc(Oc4ncc(F)cc4F)ccc3F)(CO1)NC(=N)N(C)S2(=O)=O` [Example 5, (4aS,7S,8aR)-4a-(5-((3,5-difluoropyridin-2-yl)oxy)-2-fluorophenyl)-3-imino-2,7-dimethyloctahydropyrano[3,4-e][1,2,4]thiadiazine 1,1-dioxide], the values for the Ki in assay [1] and in assay [2] were 25 nM and 13 nM, respectively.
Take `COC[C@H]1C[C@@H]2[C@](c3cc(Oc4cncc(OC)n4)ccc3F)(CO1)NC(=N)N(C)S2(=O)=O` [Example 9, (4aS,7R,8aR)-4a-(2-fluoro-5-((6-methoxypyrazin-2-yl)oxy)phenyl)-3-imino-7-(methoxymethyl)-2-methyloctahydropyrano[3,4-e][1,2,4]thiadiazine 1,1-dioxide]: the inhibition constant (Ki) in assay [1] was 4.6 nM; in assay [2], 9.4 nM.
In the same order, the values of `COC[C@H]1C[C@@H]2[C@](c3cc(OCC45CC(C#N)(C4)C5)ccc3F)(CO1)NC(=N)N(C)S2(=O)=O` [Example 15, 3-((4-fluoro-3-((4aS,7R,8aR)-3-imino-7-(methoxymethyl)-2-methyl-1,1-dioxidooctahydropyrano[3,4-e][1,2,4]thiadiazin-4a-yl)phenoxy)methyl)bicyclo[1.1.1]pentane-1-carbonitrile] are 9.1 nM and 28 nM.
For `COC[C@H]1C[C@@H]2[C@](c3cc(Oc4cccnc4)ccc3F)(CO1)NC(=N)N(C)S2(=O)=O` [Example 16, (4aS,7R,8aR)-4a-(2-fluoro-5-(pyridin-3-yloxy)phenyl)-3-imino-7-(methoxymethyl)-2-methyloctahydropyrano[3,4-e][1,2,4]thiadiazine 1,1-dioxide], the Ki in assay [1] is 39 nM; in assay [2] it was 52 nM.
On to `COC[C@H]1C[C@@H]2[C@](c3cc(Oc4cc(F)cnc4F)ccc3F)(CO1)NC(=N)N(C)S2(=O)=O` [Example 13, (4aS,7R,8aR)-4a-(5-((2,5-difluoropyridin-3-yl)oxy)-2-fluorophenyl)-3-imino-7-(methoxymethyl)-2-methyloctahydropyrano[3,4-e][1,2,4]thiadiazine 1,1-dioxide], for which the Ki is 2.1 nM in assay [1] and 10 nM in assay [2].
`COC[C@H]1C[C@@H]2[C@](c3cc(OCC4CC4)ccc3F)(CO1)NC(=N)N(C)S2(=O)=O` [Example 14, (4aS,7R,8aR)-4a-(5-(cyclopropylmethoxy)-2-fluorophenyl)-3-imino-7-(methoxymethyl)-2-methyloctahydropyrano[3,4-e][1,2,4]thiadiazine 1,1-dioxide]: the Ki in assay [1] was 7.9 nM; in assay [2], 2 nM.
In the case of `COC[C@H]1C[C@@H]2[C@](c3cc(Oc4cnccc4Cl)ccc3F)(CO1)NC(=N)N(C)S2(=O)=O` [Example 19, (4aS,7R,8aR)-4a-(5-((4-chloropyridin-3-yl)oxy)-2-fluorophenyl)-3-imino-7-(methoxymethyl)-2-methyloctahydropyrano[3,4-e][1,2,4]thiadiazine 1,1-dioxide], the Ki in assay [1] is 203 nM; in assay [2] it was 89 nM.
In the case of `COC[C@H]1C[C@@H]2[C@](c3cc(Oc4cccc(C#N)c4)ccc3F)(CO1)NC(=N)N(C)S2(=O)=O` [Example 17, 3-(4-fluoro-3-((4aS,7R,8aR)-3-imino-7-(methoxymethyl)-2-methyl-1,1-dioxidooctahydropyrano[3,4-e][1,2,4]thiadiazin-4a-yl)phenoxy)benzonitrile], the Ki in assay [1] is 4.3 nM; in assay [2], 6.9 nM.
With `C[C@H]1C[C@@H]2[C@](c3cc(Oc4ncncc4F)ccc3F)(CO1)NC(=N)N(C)S2(=O)=O` [Example 4, (4aS,7S,8aR)-4a-(2-fluoro-5-((5-fluoropyrimidin-4-yl)oxy)phenyl)-3-imino-2,7-dimethyloctahydropyrano[3,4-e][1,2,4]thiadiazine 1,1-dioxide], the Ki in assay [1] was 12 nM; in assay [2] it was 5.9 nM.
For `COC[C@H]1C[C@@H]2[C@](c3cc(Oc4ncc(F)cc4F)ccc3F)(CO1)NC(=N)N(C)S2(=O)=O` [Example 12, (4aS,7R,8aR)-4a-(5-((3,5-difluoropyridin-2-yl)oxy)-2-fluorophenyl)-3-imino-7-(methoxymethyl)-2-methyloctahydropyrano[3,4-e][1,2,4]thiadiazine 1,1-dioxide] the same measures were 20 nM and 18 nM.
Consider `C[C@H]1C[C@@H]2[C@](c3cc(OCC45CC(C#N)(C4)C5)ccc3F)(CO1)NC(=N)N(C)S2(=O)=O` [Example 8, 3-((4-fluoro-3-((4aS,7S,8aR)-3-imino-2,7-dimethyl-1,1-dioxidooctahydropyrano[3,4-e][1,2,4]thiadiazin-4a-yl)phenoxy)methyl)bicyclo[1.1.1]pentane-1-carbonitrile], for which the Ki is 9.1 nM in assay [1] and 28 nM in assay [2].
In the same order, the values of `COC[C@H]1C[C@@H]2[C@](c3cc(Oc4ncncc4F)ccc3F)(CO1)NC(=N)N(C)S2(=O)=O` [Example 11, (4aS,7R,8aR)-4a-(2-fluoro-5-((5-fluoropyrimidin-4-yl)oxy)phenyl)-3-imino-7-(methoxymethyl)-2-methyloctahydropyrano[3,4-e][1,2,4]thiadiazine 1,1-dioxide] are 5.9 nM and 4.5 nM.
For `C[C@H]1C[C@@H]2[C@](c3cc(Oc4ncccc4F)ccc3F)(CO1)NC(=N)N(C)S2(=O)=O` [Example 1, (4aS,7S,8aR)-4a-(2-fluoro-5-((3-fluoropyridin-2-yl)oxy)phenyl)-3-imino-2,7-dimethyloctahydropyrano[3,4-e][1,2,4]thiadiazine 1,1-dioxide] the same measures were 3.4 nM and 1.6 nM.
As to `C[C@H]1C[C@@H]2[C@](c3cc(OCC4CC4)ccc3F)(CO1)NC(=N)N(C)S2(=O)=O` [Example 7, (4aS,7S,8aR)-4a-(5-(cyclopropylmethoxy)-2-fluorophenyl)-3-imino-2,7-dimethyloctahydropyrano[3,4-e][1,2,4]thiadiazine 1,1-dioxide], the results for the inhibition constant Ki in assay [1] and in assay [2] were 28 nM and 4.3 nM, respectively.
In the same order, the values of `C[C@H]1C[C@@H]2[C@](c3cc(Oc4cc(C#N)ccn4)ccc3F)(CO1)NC(=N)N(C)S2(=O)=O` [Example 3, 2-(4-fluoro-3-((4aS,7S,8aR)-3-imino-2,7-dimethyl-1,1-dioxidooctahydropyrano[3,4-e][1,2,4]thiadiazin-4a-yl)phenoxy)isonicotinonitrile] are 2.7 nM and 2.3 nM.

These data come from patent US10604534B2, “C5-C6-oxacyclic fused iminothiadiazine dioxide compounds bearing an ether linker as BACE inhibitors, compositions, and their use” (Merck Sharp & Dohme Corp., priority 2016, dated 2020).
